The values that follow come from PubChem BioAssay (NCI).

The structures appear in SMILES notation.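 1) Cells in 96-well plates. 2) Compound, 48 h, 5 concentrations. 3) Linear interpolation between surrounding doses. 4) Unreached endpoint = highest concentration. TGI is the concentration that stops growth completely.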 A value given as a limit tells only on which side of the number the result lay.

Some test systems named below: HOP-62 NSCLC; ACHN renal; SK-OV-3 ovarian; SF-295 CNS; HCC-2998 colon; M14 melanoma; HT29 colon; MOLT-4 leukemia; UACC-62 melanoma; EKVX NSCLC; RPMI-8226 leukemia; SF-268 CNS; SNB-19 CNS; UO-31 renal; NCI-H226 lung; PC-3 prostate; BT-549 breast; MCF7 breast.
Experiment in all cases: NCI tumour cell line growth inhibition, 48 h

Regarding `COC(=O)N/N=C(\Cc1ccccc1)CN(C)C`, the TGI in the assay with HOP-62 NSCLC, in the assay on ACHN renal, with SK-OV-3 ovarian, with SF-295 CNS, with HCC-2998 colon and with M14 melanoma was above 100 µM each time. The TGI in the assay with HT29 colon, in the assay with MOLT-4 leukemia, in the assay on UACC-62 melanoma, with EKVX NSCLC, with RPMI-8226 leukemia and in the assay with SF-268 CNS was above 100 µM in each case.

On to `COc1ccc2c3c1O[C@]1(C)C34CCN(C)C(C2)C42C=C[C@@]1(OC)c1c(O)ccc(O)c12`, for which the TGI with HOP-62 NSCLC, in the assay with ACHN renal, with SK-OV-3 ovarian, with SF-295 CNS, in the assay with HCC-2998 colon and with SNB-19 CNS was above 100 µM each time. Moreover, the TGI with HT29 colon, in the assay with UO-31 renal, in the assay with MOLT-4 leukemia, with EKVX NSCLC, with RPMI-8226 leukemia and in the assay with SF-268 CNS was above 100 µM each time.

For `C/C(=N\NS(=O)(=O)c1ccc(C)cc1)C(CN1CCCCC1)C(c1ccccc1)c1c(O)c2ccccc2oc1=O` (centres undefined), the TGI with HOP-62 NSCLC, in the assay with ACHN renal, with SK-OV-3 ovarian, with NCI-H226 lung, in the assay with SF-295 CNS and in the assay on HCC-2998 colon was above 100 µM each time. Moreover, the TGI in the assay with M14 melanoma, in the assay on SNB-19 CNS, in the assay with HT29 colon, with UO-31 renal, in the assay on UACC-62 melanoma and in the assay on EKVX NSCLC was above 100 µM in each case. The TGI with RPMI-8226 leukemia and with SF-268 CNS was above 100 µM in each case.

For `CS(=O)(=O)c1nc(-c2cc3c(c(S(C)(=O)=O)n2)CCC3)cc2c1CCCCC2`, the TGI was above 100 µM in the assay on PC-3 prostate; 84.8 µM in the assay on HOP-62 NSCLC; above 100 µM with ACHN renal; 34.9 µM with SK-OV-3 ovarian; above 100 µM in the assay with NCI-H226 lung; above 100 µM in the assay with SF-295 CNS. Also, the TGI in the assay on HCC-2998 colon, in the assay on M14 melanoma, with SNB-19 CNS, with HT29 colon, in the assay on UO-31 renal and in the assay on MOLT-4 leukemia was above 100 µM each time. The TGI with UACC-62 melanoma was 80 µM; in the assay with EKVX NSCLC, above 100 µM; with BT-549 breast, 58.2 µM; in the assay with RPMI-8226 leukemia, above 100 µM; in the assay with SF-268 CNS it was 92.2 µM.

As for `C=Cc1ccc(C)[n+](C[Si](C)(C)O[Si](C)(C)C)c1`, the TGI in the assay with HOP-62 NSCLC, in the assay on ACHN renal, with SK-OV-3 ovarian, with NCI-H226 lung, with SF-295 CNS and with HCC-2998 colon was above 100 µM each time. The TGI in the assay with M14 melanoma, with SNB-19 CNS, with HT29 colon, in the assay with UO-31 renal, with MOLT-4 leukemia and in the assay on UACC-62 melanoma was above 100 µM throughout. The TGI in the assay on EKVX NSCLC, in the assay with RPMI-8226 leukemia and in the assay on SF-268 CNS was above 100 µM throughout.

`Cn1cc2ccccc2c1-c1nc(F)nc(F)n1`: the TGI in the assay on HOP-62 NSCLC, with ACHN renal, in the assay on SK-OV-3 ovarian, with NCI-H226 lung, with SF-295 CNS and in the assay with HCC-2998 colon was above 100 µM throughout. The TGI with M14 melanoma, with SNB-19 CNS, in the assay with HT29 colon, in the assay on UO-31 renal, in the assay with MOLT-4 leukemia and in the assay on EKVX NSCLC was above 100 µM throughout. Moreover, the TGI in the assay on RPMI-8226 leukemia is 90.5 µM; with SF-268 CNS it was above 100 µM.

For `C[N+](C)(C)CC(=O)N/N=C/c1oc(-c2c(O)ccc3ccccc23)c(-c2c(O)ccc3ccccc23)c1[N+](=O)[O-]`, the TGI amounted to 32.5 µM in the assay with ACHN renal; 36.3 µM in the assay with SK-OV-3 ovarian; 36.3 µM with NCI-H226 lung; 47.4 µM with SF-295 CNS; 34.3 µM in the assay on HCC-2998 colon; 37.2 µM in the assay with M14 melanoma. The TGI is above 100 µM in the assay with SNB-19 CNS; 38.5 µM in the assay with HT29 colon; 36 µM in the assay on UO-31 renal; 62.3 µM in the assay on MOLT-4 leukemia; 18.6 µM in the assay on UACC-62 melanoma; 45 µM with EKVX NSCLC. For the same compound, the TGI is above 100 µM in the assay with RPMI-8226 leukemia and 47.3 µM in the assay on SF-268 CNS.

As for `C[C@]12CCC(=O)C=C1CC[C@@H]1[C@@H]2CC[C@]2(C)C(=O)NC(=O)C[C@@H]12`, the TGI in the assay on HOP-62 NSCLC, with ACHN renal, with SK-OV-3 ovarian, in the assay with NCI-H226 lung, in the assay with SF-295 CNS and in the assay with HCC-2998 colon was above 100 µM in each case. Also, the TGI in the assay with M14 melanoma, in the assay on SNB-19 CNS, with HT29 colon, with UO-31 renal, with MOLT-4 leukemia and with UACC-62 melanoma was above 100 µM throughout. Moreover, the TGI in the assay with EKVX NSCLC, in the assay with RPMI-8226 leukemia and in the assay with SF-268 CNS was above 100 µM each time.

In the case of `C=C1c2ccccc2C(=O)c2c1c1c(C(=O)OC)c(O)ccc1n2Cc1ccccc1`, the TGI was determined as 1.56 µM in the assay on PC-3 prostate; 1.53 µM in the assay with HOP-62 NSCLC; 1.74 µM with ACHN renal; 1.35 µM with SK-OV-3 ovarian; 1.99 µM with SF-295 CNS; 0.763 µM with MCF7 breast. Besides, the TGI in the assay on M14 melanoma was 1.03 µM; in the assay with SNB-19 CNS, 1.52 µM; with HT29 colon, 0.823 µM; with UO-31 renal it was 1.74 µM; with MOLT-4 leukemia it was 0.971 µM; with UACC-62 melanoma, 1.12 µM. The TGI in the assay with EKVX NSCLC stood at 2.34 µM; with BT-549 breast, 1.69 µM; in the assay with RPMI-8226 leukemia it was 0.53 µM; with SF-268 CNS it was 0.518 µM.
